This data set can be described thus: Fading evaluation in fetal bovine serum under interior light (680 LUX). In kind it is physicochemical. Particulars: 5 μM in FBS, absorbance at maximum absorption wavelength after 24 hours. As for the experimental part: The ordinate of FIG. 10 indicates log(At/A0) where A0 and At respectively represent absorbance at the maximum absorption wavelength after the lapse of 0 and t hours from the irradiation of the interior light. The fading rate in Table 1 is expressed by (A0-A24)/A0, that is, variation in absorbance at the maximum absorption wavelength after the lapse of 24 hours.

For Alexa Fluor (trademark) 750 [Reagent 1], the “Fading rate (A0-A24)/A0” value is recorded as 4.5%.

The record behind these values is patent US8293782B2, “Compound, probe containing the novel compound, and fluorescence-imaging contrast agent containing the novel compound or the probe” (Canon Kabushiki Kaisha, priority 2009, dated 2012).
